Assay results reported in patent US20230091225A1, “Bifunctional chimeric heterocyclic compounds for targeted degradation of androgen receptors and use thereof” (HINOVA PHARMACEUTICALS INC., priority 2019, published 2023).

Biological target: T1, androgen receptor (AR) (Homo sapiens, UniProt P10275)
T1 sequence (P10275 1-920): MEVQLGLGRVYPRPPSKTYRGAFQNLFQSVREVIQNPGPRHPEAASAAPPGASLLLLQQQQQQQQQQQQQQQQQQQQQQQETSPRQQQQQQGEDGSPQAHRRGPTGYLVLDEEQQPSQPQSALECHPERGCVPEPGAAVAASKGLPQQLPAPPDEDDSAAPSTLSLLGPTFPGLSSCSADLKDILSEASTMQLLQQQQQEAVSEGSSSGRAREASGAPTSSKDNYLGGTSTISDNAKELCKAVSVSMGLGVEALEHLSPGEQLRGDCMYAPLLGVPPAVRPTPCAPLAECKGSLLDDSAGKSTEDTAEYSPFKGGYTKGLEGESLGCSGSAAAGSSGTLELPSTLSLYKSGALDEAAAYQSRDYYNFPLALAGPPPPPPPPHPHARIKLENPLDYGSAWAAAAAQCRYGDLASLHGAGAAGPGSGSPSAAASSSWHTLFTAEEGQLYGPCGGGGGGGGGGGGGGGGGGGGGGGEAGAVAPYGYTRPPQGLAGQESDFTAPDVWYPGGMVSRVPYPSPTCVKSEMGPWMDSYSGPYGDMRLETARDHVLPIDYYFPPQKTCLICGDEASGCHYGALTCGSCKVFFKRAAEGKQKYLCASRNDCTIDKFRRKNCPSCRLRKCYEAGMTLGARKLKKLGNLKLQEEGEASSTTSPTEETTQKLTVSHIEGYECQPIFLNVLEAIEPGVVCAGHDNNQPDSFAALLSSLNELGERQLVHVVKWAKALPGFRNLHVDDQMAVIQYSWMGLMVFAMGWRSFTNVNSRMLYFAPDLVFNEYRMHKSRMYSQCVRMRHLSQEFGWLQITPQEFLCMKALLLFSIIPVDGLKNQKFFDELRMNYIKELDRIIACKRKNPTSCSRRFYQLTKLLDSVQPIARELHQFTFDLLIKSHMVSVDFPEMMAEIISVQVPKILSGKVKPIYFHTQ
Experiment: Degradation of androgen receptor (AR) protein in VCaP cells by Western blot
Type: cell-based
Details: FIG. 1
Protocol: Determination of the Degradation Activity of the Compound on Androgen Receptor (AR) Protein by Western Blot
1) VCaP cells were subcultured in cell culture media, and then the cells in good growth condition were seeded in a 12-well plate at 1 ml/well (5×10^5 cells/well), and cultured overnight in a 37° C., 5% CO2 cell incubator. 2) The test compound was prepared into a 10 mM stock solution with dimethyl sulfoxide (DMSO). Prior to use, the solution was diluted 3 times with DMSO. […] of the diluted compound solution was added to the cell culture well (ensuring that the DMSO concentration in the culture system was 0.1%), and two wells were set for each concentration. The plate was gently shaken to mix. In addition, the experiment included negative control wells (containing equal amount of DMSO) and positive control wells. 3) After culturing 16 h. the cells were lysed with RIPA cell lysate, and the protein was extracted. The protein concentration was measured with BCA kit. 5-fold concentrated protein loading buffer was added, and after heated at 100° C. for 5 min. the sample was stored at −20° C. 4) for each well, 30 μg of protein was loaded on polyacrylamide gel for electrophoresis. 5) The protein was transferred from polyacrylamide gel to PVDF membrane, and then 5% skim milk was added to close for 1 h at room temperature. The first antibody (Androgen Receptor (D6F11) XP Rabbit mAb and Anti-β-Actin Rabbit mAb) was added and incubated overnight at 4° C. The membrane was washed with TBST solution three times. 10 min for each time. The secondary antibody (horseradish peroxidase labeled goat […]) was added and incubated at room temperature for 2 h, and then the membrane was washed with TBST solution three times. 10 min for each time.
Finally, ECL chemiluminescence solution was added, and then photos were taken with automatic chemiluminescence instrument to collect pictures for analysis.

Row | degradation activity on AR at different concentrations | Structure (SMILES)
1 | concentration-dependent manner | N#Cc1ccc(O[C@H]2CC[C@H](NC(=O)c3cnc(N4CCN(C[C@@H]5[C@H]6CN(c7cc8c(cc7F)C(=O)N(C7CCC(=O)NC7=O)C8=O)C[C@@H]56)CC4)cn3)CC2)cc1Cl (stereo partly shown) [Compound 99]

Same assay, conditions: percentage of degraded AR at 100 nM, VCaP cells, 16 h

Row | inhibition at 0.1 µM [%] | Structure (SMILES)
2 | 50 to 79 | N#Cc1ccc(O[C@H]2CC[C@H](NC(=O)c3cnc(N4CCC(CN5CC6CN(c7ccc8c(c7)C(=O)N(C7CCC(=O)NC7=O)C8=O)CC6C5)CC4)cn3)CC2)cc1Cl (stereo partly shown) [Compound 254, N-((1r,4r)-4-(3-chloro-4-cyanophenoxy)cyclohexyl)-5-(4-((5-(2-(2,6-dioxopiperidin-3-yl)-1,3-dioxoisoindolin-5-yl)Hexahydropyrrolo[3,4-c]pyrrol-2(11H)-yl)methyl)piperidin-1-yl)pyrazine-2-carboxamide]
3 | 25 to 49 | N#Cc1ccc(O[C@H]2CC[C@H](NC(=O)c3ccc(N4CCN([C@@H]5C[C@@H]6CN(c7cc8c(cc7F)C(=O)N(C7CCC(=O)NC7=O)C8=O)C[C@@H]6C5)CC4)nn3)CC2)cc1Cl (stereo partly drawn) [Compound 297, N-((1r,4r)-4-(3-chloro-4-cyanophenoxy)cyclohexyl)-6-(4-((3aR,5R,6aS)-2-(2-(2,6-dioxopiperidin-3-yl)-6-fluoro-1,3-dioxoisoindolin-5-yl)octahydrocyclopenta[c]pyrrol-5-yl)piperazin-1-yl)pyridazine-3-formamide]
4 | 50 to 79 | N#Cc1ccc(O[C@H]2CC[C@H](NC(=O)c3cnc(N4CCN(C(=O)O[C@H]5C[C@@H]6CN(c7ccc8c(c7)C(=O)N(C7CCC(=O)NC7=O)C8=O)C[C@@H]6C5)CC4)cn3)CC2)cc1Cl (stereo partly shown) [Compound 301]
5 | 50 to 79 | CC1(C)[C@H](NC(=O)c2ccc(N3CCC(NC4CCN(c5cc6c(cc5F)C(=O)N(C5CCC(=O)NC5=O)C6=O)CC4)CC3)nn2)C(C)(C)[C@H]1Oc1ccc(C#N)c(Cl)c1 (stereo partly shown) [Compound 291, N-((1r,3r)-3-(3-chloro-4-cyanophenoxy)-2,2,4,4-tetramethylcyclobutyl)-6-(4-((1-(2-(2,6-dioxopiperidin-3-yl)-6-fluoro-1,3-dioxoisoindoline)piperidine-4-yl)amino)piperidin-1-yl)pyridazine-3-formamide]
6 | 50 to 79 | N#Cc1ccc(O[C@H]2CC[C@H](NC(=O)c3ccc(N4C[C@H]5C[C@@H](CN6CCN(c7cc8c(cc7F)C(=O)N(C7CCC(=O)NC7=O)C8=O)CC6)C[C@H]5C4)nn3)CC2)cc1Cl (stereo partly drawn) [Compound 224, N-((1r,4r)-4-(3-chloro-4-cyanophenoxy)cyclohexyl)-6-((3aR,5R,6aS)-5-((4-(2-(2,6-dioxopiperidin-3-yl)-6-fluoro-1,3-dioxoisoindolin-5-yl)piperazin-1-yl)methyl)hexahydrocyclopenta[c]pyrrole-2(1H)-yl)pyridazine-3-formamide]
7 | 25 to 49 | N#Cc1ccc(O[C@H]2CC[C@H](NC(=O)c3cnc(N4CC(CN5CC6CN(c7cc8c(cc7F)C(=O)N(C7CCC(=O)NC7=O)C8=O)CC6C5)C4)nc3)CC2)cc1Cl (stereo partly shown) [Compound 140]
8 | 50 to 79 | CN(C1CCN(c2cc3c(cc2F)C(=O)N(C2CCC(=O)NC2=O)C3=O)CC1)C1CC(C#Cc2ccc3c(n2)CN([C@H]2C(C)(C)[C@H](Oc4ccc(C#N)c(Cl)c4)C2(C)C)C3=O)C1 (stereo partly shown) [Compound 332]
9 | < 25 | N#Cc1ccc(O[C@H]2CC[C@H](N3Cc4nc(C#CC5CCN(C6CCN(c7ccc8c(c7)C(=O)N(C7CCC(=O)NC7=O)C8=O)CC6)CC5)ccc4C3=O)CC2)cc1Cl (stereo partly shown) [Compound 323]
10 | > 80 | N#Cc1ccc(O[C@H]2CC[C@H](NC(=O)c3ccc(N4CC5CN(CC6CCN(c7cc8c(cc7F)C(=O)N(C7CCC(=O)NC7=O)C8=O)CC6)CC5C4)nn3)CC2)cc1Cl (stereo partly shown) [Compound 259, N-((1r,4r)-4-(3-chloro-4-cyanophenoxy)cyclohexyl)-6-(5-((1-(2-(2,6-dioxopiperidin-3-yl)-6-fluoro-1,3-dioxoisoindolin-5-yl)piperidine-4-yl)methyl)hexahydropyrrolo[3,4-c]pyrrol-2(11H)-yl)pyridazine-3-carboxamide]
11 | 50 to 79 | N#Cc1ccc(O[C@H]2CC[C@H](NC(=O)c3cnc(N4C[C@@H]5[C@@H](CN6CCN(c7ccc8c(c7)C(=O)N(C7CCC(=O)NC7=O)C8=O)CC6)[C@@H]5C4)cn3)CC2)cc1Cl (stereo partly drawn) [Compound 177, N-((1r,4R)-4-(3-chloro-4-cyanophenoxy)cyclohexyl)-5-((1R,5S,6S)-6-((4-(2-(2,6-dioxopiperidin-3-yl)-1,3-dioxoisoindolin-5-yl)piperazin-1-yl)methyl)-3-azabicyclo[3.1.0]hexan-3-yl)pyrazine-2-carboxamide]
12 | 25 to 49 | CN(C1CCN(c2ccc3c(c2)C(=O)N(C2CCC(=O)NC2=O)C3=O)CC1)C1CC(C#Cc2ccc3c(n2)CN([C@H]2C(C)(C)[C@H](Oc4ccc(C#N)c(Cl)c4)C2(C)C)C3=O)C1 (stereo partly shown) [Compound 331]
13 | 50 to 79 | N#Cc1ccc(O[C@H]2CC[C@H](NC(=O)c3ccc(N4CCC(CN5CC6CN(c7cc8c(cc7F)C(=O)N(C7CCC(=O)NC7=O)C8=O)CC6C5)CC4)nn3)CC2)cc1Cl (stereo partly shown) [Compound 253, N-((1r,4r)-4-(3-chloro-4-cyanophenoxy)cyclohexyl)-6-(4-((5-(2-(2,6-dioxopiperidin-3-yl)-6-fluoro-1,3-dioxoisoindolin-5-yl)Hexahydropyrrolo[3,4-c]pyrrol-2(1H)-yl)methyl)piperidin-1-yl)pyridazine-3-formamide]

Row | Structure (SMILES) | inhibition at 0.1 µM [%]
14 | N#Cc1ccc(O[C@H]2CC[C@H](NC(=O)c3cnc(N4CCC(CN5CCC(Nc6ccc7c(c6)C(=O)N(C6CCC(=O)NC6=O)C7=O)CC5)CC4)cn3)CC2)cc1Cl (stereo partly shown) [Compound 146] | > 80
15 | N#Cc1ccc(O[C@H]2CC[C@H](NC(=O)c3ccc(N4CCC(CN5CCC(Nc6ccc7c(c6)C(=O)N(C6CCC(=O)NC6=O)C7=O)CC5)CC4)nn3)CC2)cc1Cl (stereo partly shown) [Compound 143] | > 80
16 | N#Cc1ccc(O[C@H]2CC[C@H](NC(=O)c3ccc(N4CCC(N5CC6(CCN(c7cc8c(cc7F)C(=O)N(C7CCC(=O)NC7=O)C8=O)CC6)C5)CC4)nn3)CC2)cc1Cl (stereo partly drawn) [Compound 61, N-((1R,4R)-4-(3-chloro-4-cyanophenoxy)cyclohexyl)-6-(4-(7-(2-(2,6-dioxopiperidin-3-yl)-6-fluoro-1,3-dioxoisoindolin-5-yl)-2,7-diazaspiro[3.5]nonyl-2-yl)piperidin-1-yl)pyridazine-3-carboxamide] | > 80
17 | N#Cc1ccc(O[C@H]2CC[C@H](NC(=O)c3ccc(N4CCC5(CC4)CN(C4CCN(c6cc7c(cc6F)C(=O)N(C6CCC(=O)NC6=O)C7=O)CC4)C5)nn3)CC2)cc1Cl (stereo partly shown) [Compound 71] | > 80
18 | CC1(C)[C@H](Oc2ccc(C#N)c(Cl)c2)C(C)(C)[C@H]1N1Cc2nc(C#CC3CN(C4CCN(c5cc6c(cc5F)C(=O)N(C5CCC(=O)NC5=O)C6=O)CC4)C3)ccc2C1=O (stereo partly shown) [Compound 320, 2-Chloro-4-((1r,3r)-3-(2-((1-(1-(2-(2,6-dioxopiperidin-3-yl)-6-fluoro-1,3-dioxoisoindolin-5-yl)piperidine-4-yl)azelaic acid-3-yl)ethynyl)-5-oxo-5H-pyrrolino[3,4-b]pyridin-6(7H)-yl)-2,2,4,4-tetramethylcyclobutoxy)benzonitrile] | 50 to 79
19 | N#Cc1ccc(O[C@H]2CC[C@H](NC(=O)c3cnc(N4CC5CN(C6CCN(c7ccc8c(c7)C(=O)N(C7CCC(=O)NC7=O)C8=O)CC6)CC5C4)cn3)CC2)cc1Cl (stereo partly shown) [Compound 69, N-((1r,4r)-4-(3-chloro-4-cyanophenoxy)cyclohexyl)-5-(5-(1-(2-(2,6-dioxopiperidin-3-yl)-1,3-dioxoisoindolin-5-yl)piperidine-4-yl)hexahydropyrrolo[3,4-c]pyrrol-2(1H)-yl)pyrazine-2-carboxamide] | < 25
